Results: ChEMBL document CHEMBL1201862, “PubChem BioAssay data set” (2004)
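Tested at 5 concentrations; 48 h exposure; 96-well plates; endpoints linearly interpolated, else capped at highest concentration. GI50 marks 50% less growth.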 Active and inactive are the calls of the source. Rule as the data show it: active = GI50 up to about 1.1 µM and inactive = higher.

How the values were obtained:
Test in all cases: NCI-60 cell line screen, 48 h
[1] = tested on: DU-145
[2] = tested on: MDA-MB-231
[3] = tested on: HOP-62
[4] = tested on: HL-60
[5] = tested on: Hs-578T
[6] = tested on: K562
[7] = tested on: NCI-H226
[8] = tested on: RPMI-8226
[9] = tested on: EKVX
[10] = tested on: OVCAR-3
[11] = tested on: SK-MEL-28
[12] = tested on: SF-295
[13] = tested on: MDA-N
[14] = tested on: HT-29
[15] = tested on: IGROV-1
[16] = tested on: CCRF-CEM
[17] = tested on: MDA-MB-435
[18] = tested on: OVCAR-4
[19] = tested on: SK-MEL-5

Measured: GI50

Cc1cn(C2CC(/[N+]([O-])=N\Nc3ccc([N+](=O)[O-])cc3)C(CO)O2)c(=O)[nH]c1=O (configuration not stated)
inactive: [1] > 100 µM | [2] 73.3 µM | [3] > 100 µM | [4] > 100 µM | [5] > 100 µM | [6] > 100 µM | [7] > 100 µM | [8] 42.8 µM | [9] > 100 µM | [10] > 100 µM | [11] > 100 µM | [12] > 100 µM | [13] > 100 µM | [14] > 100 µM | [15] 22.5 µM | [16] > 100 µM | [17] > 100 µM

Cc1cc(S(=O)(=O)NC2=Nc3cccc(F)c3CN2)c(S)cc1Cl
inactive: [18] 68.1 µM | [1] 74.5 µM | [2] > 100 µM | [4] 96.8 µM | [5] > 100 µM | [7] > 100 µM | [8] 24.8 µM | [9] 75 µM | [10] 63 µM | [11] 95.9 µM | [12] 30.1 µM | [13] 66.4 µM | [15] 36.2 µM | [19] 22 µM | [16] 57.4 µM | [17] 68.9 µM

C=CCNC(=S)N/C=C(/C(C)=O)C(=O)Nc1ccccc1C
inactive: [18] > 100 µM | [1] > 100 µM | [2] > 100 µM | [3] > 100 µM | [4] > 100 µM | [5] > 100 µM | [6] > 100 µM | [7] > 100 µM | [8] 4.76 µM | [9] > 100 µM | [10] > 100 µM | [12] > 100 µM | [13] > 100 µM | [14] > 100 µM | [15] > 100 µM | [19] > 100 µM | [17] > 100 µM

Nc1ccc(/C=C/c2ccc3cccnc3c2)cc1
inactive: [1] > 100 µM | [2] > 100 µM | [3] > 100 µM | [4] 4.61 µM | [5] > 100 µM | [6] > 100 µM | [7] > 100 µM | [8] 2.26 µM | [9] > 100 µM | [10] > 100 µM | [11] > 100 µM | [12] > 100 µM | [13] > 100 µM | [14] > 100 µM | [19] > 100 µM | [16] > 100 µM | [17] > 100 µM
